For orientation: EC50 means the concentration that produces a half-maximal response. A word on the Ki: it is a dissociation constant, usually derived from enzyme kinetics or from competition with a known ligand. What is called AC50 is the concentration at which the activity in the assay is half-maximal.

Molecules are shown by their SMILES. Calls of active or inactive are those of the source. A value given as a limit tells only on which side of the number the result lay.

These results are taken from ChEMBL document CHEMBL1201862, “PubChem BioAssay data set” (2004).

Assay [1] has as its target T1, RNA-binding protein pos-1 (Caenorhabditis elegans, UniProt G5EF15).
T1 sequence (G5EF15 whole entry): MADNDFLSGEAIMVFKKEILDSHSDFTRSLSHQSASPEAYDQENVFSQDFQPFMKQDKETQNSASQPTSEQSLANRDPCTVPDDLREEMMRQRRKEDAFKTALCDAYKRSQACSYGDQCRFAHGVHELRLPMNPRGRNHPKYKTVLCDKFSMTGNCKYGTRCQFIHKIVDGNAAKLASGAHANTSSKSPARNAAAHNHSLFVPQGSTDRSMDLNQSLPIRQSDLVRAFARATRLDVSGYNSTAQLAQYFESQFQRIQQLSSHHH
Briefly: disruptors of C. elegans POS-1 RNA interaction – biochemical, fluorescence polarization, dose response (AID 1964).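 Also: purified POS-1 fused to maltose binding protein made in E. coli; potency of compounds blocking POS-1 binding to fluorescent RNA.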

Assay [2] relates to Streptococcus sp. 'group A'. Nature of the assay: Streptococcus pyogenes SK(-)GAS viability under kanamycin – luminescence, BacTiterGlo, confirmation, counter-screen for streptokinase expression inhibitor project, dose response (AID 1900). In kind it is functional, organism-based. (In general: A counterscreen serves to expose hits that act by an unwanted route or on another target.)

Assay [3] has as its target T2, Zinc finger protein mex-5 (Caenorhabditis elegans, UniProt Q9XUB2).
T2 sequence (Q9XUB2 whole entry): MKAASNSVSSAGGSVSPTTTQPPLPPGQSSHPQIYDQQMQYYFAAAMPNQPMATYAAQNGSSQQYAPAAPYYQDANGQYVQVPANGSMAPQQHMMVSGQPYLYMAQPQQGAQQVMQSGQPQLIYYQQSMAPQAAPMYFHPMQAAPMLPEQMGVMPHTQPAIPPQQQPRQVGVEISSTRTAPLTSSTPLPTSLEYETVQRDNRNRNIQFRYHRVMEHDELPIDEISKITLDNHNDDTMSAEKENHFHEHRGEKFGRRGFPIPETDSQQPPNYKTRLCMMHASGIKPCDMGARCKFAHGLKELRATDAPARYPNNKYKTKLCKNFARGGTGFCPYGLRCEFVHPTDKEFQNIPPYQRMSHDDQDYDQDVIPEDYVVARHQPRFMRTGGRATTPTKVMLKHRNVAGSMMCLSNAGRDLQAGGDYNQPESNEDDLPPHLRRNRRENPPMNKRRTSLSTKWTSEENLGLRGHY
Briefly: potency of MEX-5 RNA-binding blockers – biochemical, C. elegans, fluorescence polarization, dose response (AID 1960). (In fluorescence polarisation assays a small probe gives low polarisation when free and higher when bound to something large.)

Assay [4] has as its target T3, Streptokinase A (Streptococcus pyogenes serotype M1, UniProt P10520).
T3 sequence (P10520 whole entry): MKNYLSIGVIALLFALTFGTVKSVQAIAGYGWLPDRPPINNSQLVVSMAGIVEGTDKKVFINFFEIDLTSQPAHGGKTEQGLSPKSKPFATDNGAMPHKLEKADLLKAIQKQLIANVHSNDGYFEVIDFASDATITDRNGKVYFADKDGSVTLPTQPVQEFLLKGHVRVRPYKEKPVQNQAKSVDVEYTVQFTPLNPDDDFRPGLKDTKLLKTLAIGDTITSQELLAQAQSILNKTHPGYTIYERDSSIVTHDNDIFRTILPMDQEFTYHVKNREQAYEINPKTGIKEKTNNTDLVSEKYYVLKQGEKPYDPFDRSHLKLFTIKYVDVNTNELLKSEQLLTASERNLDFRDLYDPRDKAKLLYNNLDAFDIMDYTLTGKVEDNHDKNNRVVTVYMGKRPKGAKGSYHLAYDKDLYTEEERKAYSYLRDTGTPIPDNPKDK
Briefly: viability-normalized secreted streptokinase activity reduction – plasminogen activation absorbance, OD405, dose response (AID 1914).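 Also: secreted streptokinase activity via plasminogen activation per viability signal from cell pellet.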 Type of assay: functional, Streptococcus pyogenes M1 GAS.

For assay [5], the system named is Streptococcus. Briefly: GAS UMAA2166 growth inhibition – luminescence, BacTiterGlo, counter-screen for streptokinase expression inhibitor project, dose response (AID 1915).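 Also: potency for reduction of bacterial viability or growth.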 Type of assay: functional, organism-based.
Assay [6] has as its target T4, Probable nicotinate-nucleotide adenylyltransferase (Staphylococcus aureus (strain N315), UniProt P65502). Type of assay: functional, Staphylococcus aureus subsp. aureus N315.
In assay [7] the target is T4, Probable nicotinate-nucleotide adenylyltransferase. Type of assay: functional, Staphylococcus aureus subsp. aureus N315. Conditions: read-out: IC50_Mean.
Assay [8] concerns the target T5, Rac GTPase-activating protein 1 (Homo sapiens, UniProt Q9H0H5).
T5 sequence (Q9H0H5 whole entry): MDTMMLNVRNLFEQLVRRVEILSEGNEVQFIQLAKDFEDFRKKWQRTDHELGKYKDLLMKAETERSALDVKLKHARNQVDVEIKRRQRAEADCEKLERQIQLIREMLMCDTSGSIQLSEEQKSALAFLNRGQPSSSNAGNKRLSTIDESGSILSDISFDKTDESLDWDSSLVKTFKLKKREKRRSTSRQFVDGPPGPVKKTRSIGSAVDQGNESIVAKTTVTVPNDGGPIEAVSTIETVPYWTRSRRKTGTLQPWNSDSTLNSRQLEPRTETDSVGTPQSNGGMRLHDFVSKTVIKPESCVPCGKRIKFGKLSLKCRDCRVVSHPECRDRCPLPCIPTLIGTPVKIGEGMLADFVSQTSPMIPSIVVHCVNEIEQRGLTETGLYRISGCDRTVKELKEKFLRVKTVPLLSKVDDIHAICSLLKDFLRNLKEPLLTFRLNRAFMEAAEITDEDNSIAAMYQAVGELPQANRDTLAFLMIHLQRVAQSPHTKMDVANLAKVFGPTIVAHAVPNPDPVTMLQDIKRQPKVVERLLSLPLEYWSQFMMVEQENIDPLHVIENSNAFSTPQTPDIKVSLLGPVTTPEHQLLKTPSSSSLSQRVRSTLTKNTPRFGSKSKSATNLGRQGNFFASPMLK
Briefly: blockers of MgcRacGAP-driven Rac1 GTP hydrolysis – biochemical, ADP Hunter fluorescence, primary and confirmatory, confirmation (AID 624330). In kind it is functional.

The subject of assay [9] is H9c2. Nature of the assay: cells. Type of assay: functional, cell-based. Conditions: Rattus norvegicus, H9c2, Myocardium.
Assay [10] concerns the target T6, Tyrosine-protein kinase receptor TYRO3 (Homo sapiens, UniProt Q06418).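 Also: TYRO3 value obtained as one member of a kinome-wide profiling panel.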
T6 sequence (Q06418 whole entry): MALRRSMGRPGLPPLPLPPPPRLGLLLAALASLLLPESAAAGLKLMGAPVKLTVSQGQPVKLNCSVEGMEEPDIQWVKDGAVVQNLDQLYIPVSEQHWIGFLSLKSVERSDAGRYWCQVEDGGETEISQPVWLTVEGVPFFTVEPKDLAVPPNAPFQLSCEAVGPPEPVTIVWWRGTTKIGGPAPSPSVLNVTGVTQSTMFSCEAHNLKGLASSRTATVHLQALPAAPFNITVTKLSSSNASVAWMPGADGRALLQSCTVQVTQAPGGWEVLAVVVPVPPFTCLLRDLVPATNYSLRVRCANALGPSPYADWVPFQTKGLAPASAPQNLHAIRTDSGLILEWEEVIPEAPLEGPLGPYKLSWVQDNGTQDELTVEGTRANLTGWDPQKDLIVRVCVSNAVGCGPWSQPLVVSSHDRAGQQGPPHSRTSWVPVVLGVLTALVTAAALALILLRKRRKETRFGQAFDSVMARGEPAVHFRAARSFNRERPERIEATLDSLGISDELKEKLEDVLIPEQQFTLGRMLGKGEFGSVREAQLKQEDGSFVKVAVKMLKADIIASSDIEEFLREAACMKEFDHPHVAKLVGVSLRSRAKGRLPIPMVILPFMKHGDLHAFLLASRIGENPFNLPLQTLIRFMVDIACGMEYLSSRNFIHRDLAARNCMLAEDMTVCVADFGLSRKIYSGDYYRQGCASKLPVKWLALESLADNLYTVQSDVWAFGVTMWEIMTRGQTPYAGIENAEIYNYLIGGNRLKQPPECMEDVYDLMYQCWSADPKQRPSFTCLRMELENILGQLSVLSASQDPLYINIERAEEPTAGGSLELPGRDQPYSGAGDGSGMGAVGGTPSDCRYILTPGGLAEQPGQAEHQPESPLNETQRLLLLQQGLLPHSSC
In kind it is functional.

For assay [11], the target named is Dual specificity tyrosine-phosphorylation-regulated kinase 1B (Homo sapiens, UniProt Q9Y463). Briefly: Navigating the Kinome. Panel member name: DYRK1B. Type of assay: functional.
The nature of assay [12]: activation of miR-122 Renilla sensor silencing – cell-based, Huh7 psiCHECK-miR122, Renilla luciferase, cherry-picked, dose response (AID 651956).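 Also: huh7 hepatoma cells stably carrying a psiCHECK-2 miR-122 sensor plasmid; renilla luciferase signal reporting endogenous miR-122 activity after 48 h compound exposure.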 Type of assay: functional.
Assay [13] in a line: general mammalian cell viability loss – inhibitor set, cherry-pick, set 2, cytotoxicity control for miR-122 modulator project, dose response (AID 720697). Type of assay: functional, cell-based.
The target in assay [14] is Paired box protein Pax-8 (Homo sapiens, UniProt Q06710). Briefly: PAX8 transcriptional activity inhibition in RMG-I – RMG-I cells, luciferase, cherry-pick, dose response (AID 687027).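 Also: luciferase reporter driven by Pax8 target thyroperoxidase promoter measured by SteadyGlo luminescence.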 In kind it is functional, cell-based.
The nature of assay [15]: OVCAR-3 cell viability loss – plate reader, dry powder samples, PAX8 inhibitor project, dose response (AID 743044). Type of assay: functional, cell-based.
Assay [16] can be described thus: IGROV1 cell killing – plate reader, dry powder samples, PAX8 inhibitor project, dose response (AID 743043). Conditions: IGROV-1. Type of assay: functional, cell-based.
Assay [17] is described as follows: OVCAR8 cell viability loss – plate reader, dry powder samples, PAX8 project, dose response (AID 743197). Type of assay: functional, cell-based. The conditions noted are these: OVCAR-8.
Assay [18] has as its target T7, Small ubiquitin-related modifier 1 (Homo sapiens, UniProt P63165). Briefly: SUMO1 protein interaction blockers, potency – biochemical, fluorescence polarization, uHTS hits, dose response (AID 624382). Type of assay: functional. Conditions: read-out: IC50_Mean.
The target in assay [19] is T7, Small ubiquitin-related modifier 1. Nature of the assay: SUMO1 protein-protein binding blockers, potency – biochemical, FRET, dose response (AID 624383). Type of assay: functional. The conditions noted are these: read-out: IC50_Mean.

T4 sequence (P65502 whole entry): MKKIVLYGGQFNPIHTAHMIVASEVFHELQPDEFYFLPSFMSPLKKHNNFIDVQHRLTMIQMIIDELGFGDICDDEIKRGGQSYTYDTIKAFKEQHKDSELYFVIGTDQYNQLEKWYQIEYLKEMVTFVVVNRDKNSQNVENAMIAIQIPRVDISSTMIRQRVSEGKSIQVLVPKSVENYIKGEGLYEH
T7 sequence (P63165 whole entry): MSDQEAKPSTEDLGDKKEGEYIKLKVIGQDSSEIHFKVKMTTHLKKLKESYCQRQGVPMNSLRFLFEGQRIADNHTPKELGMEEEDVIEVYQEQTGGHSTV
Chain of Paired box protein Pax-8 (Q06710 whole entry): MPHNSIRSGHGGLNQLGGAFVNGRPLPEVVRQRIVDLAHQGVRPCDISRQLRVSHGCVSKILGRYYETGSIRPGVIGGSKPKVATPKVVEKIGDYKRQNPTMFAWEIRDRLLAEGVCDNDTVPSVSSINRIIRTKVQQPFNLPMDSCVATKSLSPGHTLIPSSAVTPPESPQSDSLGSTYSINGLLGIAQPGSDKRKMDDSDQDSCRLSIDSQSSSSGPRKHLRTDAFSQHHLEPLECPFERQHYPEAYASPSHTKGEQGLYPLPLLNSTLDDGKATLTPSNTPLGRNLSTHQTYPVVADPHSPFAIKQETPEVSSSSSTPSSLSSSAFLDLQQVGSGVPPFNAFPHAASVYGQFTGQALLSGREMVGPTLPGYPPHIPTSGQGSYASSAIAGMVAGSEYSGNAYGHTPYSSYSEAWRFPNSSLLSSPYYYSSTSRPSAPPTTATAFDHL
Chain of Dual specificity tyrosine-phosphorylation-regulated kinase 1B (Q9Y463 whole entry): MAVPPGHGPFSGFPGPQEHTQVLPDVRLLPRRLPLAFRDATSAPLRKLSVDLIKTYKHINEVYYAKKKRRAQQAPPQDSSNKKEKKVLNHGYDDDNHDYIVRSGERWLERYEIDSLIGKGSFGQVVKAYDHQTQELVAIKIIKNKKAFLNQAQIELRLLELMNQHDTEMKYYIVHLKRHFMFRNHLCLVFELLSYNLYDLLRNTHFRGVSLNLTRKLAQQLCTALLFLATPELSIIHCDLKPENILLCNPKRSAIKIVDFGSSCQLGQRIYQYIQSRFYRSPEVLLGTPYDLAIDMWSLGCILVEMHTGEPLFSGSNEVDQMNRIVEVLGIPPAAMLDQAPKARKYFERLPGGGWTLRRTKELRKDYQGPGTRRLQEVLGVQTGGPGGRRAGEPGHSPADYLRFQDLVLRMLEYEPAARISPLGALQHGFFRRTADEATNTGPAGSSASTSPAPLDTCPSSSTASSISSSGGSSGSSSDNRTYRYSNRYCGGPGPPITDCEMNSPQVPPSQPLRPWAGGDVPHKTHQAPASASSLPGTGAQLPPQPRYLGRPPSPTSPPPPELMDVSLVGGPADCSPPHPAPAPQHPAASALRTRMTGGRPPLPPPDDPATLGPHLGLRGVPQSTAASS

For `Cc1cccc2sc(NNC(=O)c3cc(=O)c4ccccc4o3)nc12`, the EC50 in [1] was > 300 µM (not active); in [2], 0.449 µM (active); in assay [3], > 300 µM (not active); in assay [4], > 150 µM (not active); in assay [5], 7.43 µM (active). The values for the IC50 in [6], in assay [7] and in assay [8] were 5.9 µM (active), 35.2 µM (active) and 94 µM (active), respectively.
On to `Cc1ccc(Cl)cc1N1CCN(S(=O)(=O)c2ccc3[nH]c(=O)c(=O)[nH]c3c2)CC1`, for which the IC50 in assay [6] was 7.01 µM (active); in assay [7] it was 52.8 µM (active).
For the compound `COc1cccc(Nc2nc(-c3sc(NC(=O)c4ccco4)nc3C)cs2)c1`, the IC50 was > 79 µM (inactive) in [9], 13.5 µM (active) in assay [6] and 33.2 µM (active) in [7].
As to `O=c1[nH]c2cnc(Cl)nc2[nH]1`, the Ki in assay [10] and in assay [11] was 79.4 µM (active) throughout.
On to `COc1ccc(-c2ccc3c(c2)O[C@H](CN(C)C(=O)Nc2ccccc2F)[C@H](C)CN([C@@H](C)CO)S3(=O)=O)cc1`, for which the AC50 was 9.32 µM (active) in assay [12] and 0.5 µM (active) in assay [13].
For the compound `CNC(=O)C[C@H]1CC[C@@H]2[C@H](COc3ccc(NS(=O)(=O)c4ccc(F)cc4)cc3C(=O)N2C)O1`, the AC50 in assay [12] is 47.9 µM (active).
As to `C[C@@H]1CCCCO[C@@H](CN(C)C(=O)Nc2ccc(C(F)(F)F)cc2)[C@H](C)CN([C@H](C)CO)C(=O)c2cc(NS(=O)(=O)c3cccs3)ccc2O1`, the concentration at half-maximal activity (AC50) in assay [14] was 8.64 µM (active); in assay [15], 20 µM (active); in assay [16], 45.5 µM (active); in assay [17] it was 39.4 µM (active).
As to `O=C(N/N=C/c1cccnc1)c1cccc(NC(=O)c2ccc(Cl)cc2)c1`, the IC50 was > 66.6 µM (inactive) in assay [18] and 5.33 µM (active) in [19].
